Measured values from US10137070B2 (Industry-Academic Cooperation Foundation, Yonsei University, priority 2016, dated 2018).

Legend:
[1] = Body weights and food intakes of hairless mice fed experimental diets; format: in vivo, albino hairless mice (Skh-1); settings: 0.2% in AIN-93 diet for 10 weeks; UVB-irradiated hairless mice
From the text: (§1) 5-week-old female albino hairless mice (Skh-1) used in the present example were purchased from ORIENTBIO (Gyeonggi-do, Korea) and subjected to an adaptation period of 1 week with solid feed. The experimental animal was divided into 4 groups and 5 mice were assigned to each group. All the experimental groups were divided into a normal control not irradiated with ultraviolet rays (−UVB), a group irradiated with ultraviolet rays (+UVB), and a group irradiated with ultraviolet rays and treated with α-ionone (αIO) or vitamin C (VitC). During a rearing period, the experimental groups were freely fed feed and water, temperature and humidity were maintained at 22±1° C. and 60±5%, a light period and a dark period were adjusted every day to 12 hours.
(§2) The −UVB and +UVB groups were fed a purified diet formulated based on the AIN-93 rodent diet composition (Ree yes, P G et al., J Nutr, 123:1939-1951, 1993) for 10 weeks, the αIO group were fed an AIN-93 purified diet with 0.2% of α-ionone (Sigma-Aldrich) for 10 weeks, and the VitC group was fed a diet, prepared by adding 0.2% of vitamin C (Sigma-Aldrich) to the AIN-93 purified diet, for 10 weeks. The diets were supplied daily with water between 10 am and 11 am, and food intakes were measured daily.
(§3) During the experimental rearing period, dorsal parts of the hairless mice were irradiated with UVB three times a week, and the amount of ultraviolet radiation was 73 mJ/cm^2 for the first one week, 146 mJ/cm^2 for the second week, and 219 mJ/cm^2 for the third week to the tenth week. During rearing, body weights and skin thicknesses of the experimental groups were measured weekly, and images of dorsal skin parts thereof were taken. The skin thicknesses of buttocks of the hairless mice were measured using a digital micro caliper (Marathon Watch Company Ltd, Ontario, Canada).

[2] = tested on: human skin fibroblasts; test: Procollagen type I C-peptide (PIP) secretion of UVB-irradiated human skin fibroblasts (EIA kit); format: cell-based; settings: 100 μM each; UVB 20 mJ/cm^2; 24 hours culture; mean of three wells
Description: Primary dermal fibroblasts (normal, human, neonatal, ATCC No. PCS-201-010) were purchased from ATCC (Manassas, Va., USA). The purchased cells were incubated in a 5% CO2 incubator at 37° C. by using a fibroblast growth medium (Promo Cell, Heidelberg) and used in experiments.
To examine collagen biosynthesis ability, human fibroblasts were distributed into a 12 well-plate at a concentration of 1.0×10^6 cells/well, α-ionone and vitamin C were added thereto at a concentration of 100 μM each, and the resulting human fibroblasts were incubated in a CO2 incubator for 24 hours. After removing the medium from each well, the plate was washed once with PBS, and 1 ml of PBS was added thereto, followed by irradiation with ultraviolet B (UVB) at a dose of 20 mJ/cm^2. The PBS of each well was replaced by a medium and the human fibroblasts were cultured for 24 hours, and then the amount of procollagen secreted into the medium was measured using a procollagen type C-peptide EIA kit (Takara Bio, Japan). A standard solution included in the collagen measurement kit was diluted according to concentration, absorbance was measured at 450 nm to create a standard concentration curve, and the amount of collagen produced was calculated. […]

[3] = tested on: Collagen type I alpha2 (Col1α2); test: RT-PCR gene expression in dorsal skin tissue: Col1α2; format: in vivo, albino hairless mice (Skh-1); settings: 0.2% in diet for 10 weeks
From the text: as §1
(§4) The −UVB and +UVB groups were fed a purified diet formulated based on the AIN-93 rodent diet composition (Ree yes, P G et al., J Nutr, 123:1939-1951, 1993) for 10 weeks, the αIO group were fed an AIN-93 purified diet with 0.2% of α-ionone (Sigma-Aldrich) for 10 weeks, and the VitC group was fed a diet, prepared by adding 0.2% of vitamin C (Sigma-Aldrich) to the AIN-93 purified diet, for 10 weeks. The diets were supplied daily with water between 10 am and 11 am, and food intakes were measured daily. […]

[4] = tested on: skin tissues of ultraviolet rays-irradiated hairless mice; test: Skin moisture content, moisture evaporation, elasticity and erythema index of UVB-irradiated hairless mice (Corneometer, Tewameter, Cutometer, Mexameter); format: in vivo, albino hairless mice (Skh-1); settings: 0.2% in diet for 10 weeks; UVB three times a week; last day
From the text: as §1, §2, §3
Skin moisture content, moisture evaporation, elasticity, and the erythema index of each of the experimental animal groups were measured once on the last day of the experiment using Corneometer®, Tewameter®, Cutometer®, and Mexameter® (Courage+Khazaka electronic GmbH), respectively. During the measurement, the value obtained by lightly pressing a certain portion of the experimental animal or the like was recorded.

[5] = tested on: Matrix metallopeptidase 3 (MMP-3); test: RT-PCR gene expression in dorsal skin tissue: MMP-3; format: in vivo, albino hairless mice (Skh-1); settings: 0.2% in diet for 10 weeks
From the text: as §1, §4

[6] = tested on: Matrix metallopeptidase 9 (MMP-9); test: RT-PCR gene expression in dorsal skin tissue: MMP-9; format: in vivo, albino hairless mice (Skh-1); settings: 0.2% in diet for 10 weeks
From the text: as §1, §4

[7] = tested on: Matrix metallopeptidase 1a (MMP-1a); test: RT-PCR gene expression in dorsal skin tissue: MMP-1a; format: in vivo, albino hairless mice (Skh-1); settings: 0.2% in diet for 10 weeks
From the text: as §1, §4

[8] = tested on: skin epidermis layer of UV-irradiated hairless mice; test: Skin epidermis layer thickness by H&E staining; format: in vivo, albino hairless mice (Skh-1); settings: 0.2% in diet for 10 weeks; UVB for 10 weeks
From the text: as §1, §4

[9] = tested on: Collagen type I alpha1 (Col1α1); test: RT-PCR gene expression in dorsal skin tissue: Col1α1; format: in vivo, albino hairless mice (Skh-1); settings: 0.2% in diet for 10 weeks
From the text: as §1, §4

[10] = tested on: skin of UV-irradiated hairless mice; test: Skin thickness of UV-irradiated hairless mice (digital micro caliper); format: in vivo, albino hairless mice (Skh-1); settings: last day, 0.2% in diet for 10 weeks
From the text: as §1, §4

[11] = tested on: dorsal skin of ultraviolet rays-irradiated hairless mice; test: Wrinkle formation on dorsal skin of UVB-irradiated hairless mice (images, silicone replica, image analyzer); format: in vivo, albino hairless mice (Skh-1); settings: 0.2% in diet for 10 weeks
From the text: as §1, §2, §3
The skin of each hairless mouse irradiated with ultraviolet rays for 10 weeks was replicated using silicone rubber and a degree of the formation of wrinkles was measured. A disk with a circular hole having a diameter of 1 cm was attached to a dorsal part of the hairless mouse, reagents for preparing a replica were mixed, the mixed resultant was thinly spread on the dorsal art of the hairless mouse and completely dried, and then the disk was carefully detached therefrom, thereby completing the preparation of the replica. The replica was prepared at a temperature of about 20° C. to about 23° C. and a humidity of about 45% to about 50% under constant temperature and constant humidity conditions, a silicon rubber impression material (Epigem, Seoul, Korea) for preparing a replica was used. To analyze the prepared replica, four wrinkle indexes, such as a total wrinkle area, a maximum wrinkle depth, a mean depth, and a mean length were analyzed using a computer image analyzer (Visioline VL650, Courage+Khazaka electronic GmbH, Germany).

[12] = tested on: Matrix metallopeptidase 1b (MMP-1b); test: RT-PCR gene expression in dorsal skin tissue: MMP-1b; format: in vivo, albino hairless mice (Skh-1); settings: 0.2% in diet for 10 weeks
From the text: as §1, §4

[13] = tested on: Collagen type III alpha1 (Col3α1); test: RT-PCR gene expression in dorsal skin tissue: Col3α1; format: in vivo, albino hairless mice (Skh-1); settings: 0.2% in diet for 10 weeks
From the text: as §1, §4

[14] = tested on: collagen fibers in dermis layers of UV-irradiated hairless mice; test: Collagen fibers in dermis layer by Masson's trichrome staining; format: in vivo, albino hairless mice (Skh-1); settings: 0.2% in diet for 10 weeks; UVB for 10 weeks
From the text: as §1, §4

[15] = tested on: rats; settings: 32 rats, orally 10 mg/day for 8 weeks; cited from earlier work
[16] = tested on: microorganisms harmful to the human body; settings: Findic et al 2009; cited from earlier work
[17] = in vivo; cited from earlier work
[18] = replica, computer image analyzer

Molecule: O=C1O[C@H]([C@@H](O)CO)C(O)=C1O [vitamin C, reference compound]
- effect on body weights [1]: no significant effect
- effect on food intakes [1]: no significant effect
- increase in the amount of collagen (procollagen type I C-peptide secreted) compared to control cells irradiated with ultraviolet rays alone (+UVB) [2]: 37%

Molecule: CC(=O)/C=C/C1C(C)=CCCC1(C)C (stereo not drawn) [α-ionone, (3E)-4-(2,6,6-trimethylcyclohex-2-en-1-yl)but-3-en-2-one]
- effect on body weights [1]: no significant effect
- effect on food intakes [1]: no significant effect
- expression of collagen type 1α2 compared to the +UVB control [3]: significant increase
- decrease in erythema index compared to the +UVB control [4]: 26%
- decrease in moisture evaporation compared to the +UVB control [4]: 46%
- increase in elasticity of skin tissue compared to the +UVB control [4]: 77%
- increase in moisture content of skin tissue compared to the +UVB control [4]: 78%
- expression of MMP-3 gene compared to the +UVB control [5]: significant decrease
- expression of MMP-9 gene compared to the +UVB control [6]: significant decrease
- expression of MMP-1a gene compared to the +UVB control [7]: significant decrease
- thickness of the thickened epidermis layer due to UV irradiation (H&E staining) [8]: significant decrease
- expression of collagen type 1α1 compared to the +UVB control [9]: significant increase
- decrease in skin thickness compared to the +UVB control [10]: 19%
- increase in the amount of collagen (procollagen type I C-peptide secreted) compared to control cells irradiated with ultraviolet rays alone (+UVB) [2]: 37%
- degree of formation of wrinkles in silicone rubber replica compared to the +UVB control ([11]; UVB for 10 weeks): significant improvement on the thickness and depth of wrinkles
- skin wrinkles in images of dorsal skin (naked eye) compared to the +UVB control ([11]; UVB for 10 weeks): significant decrease in the thickness and depth of wrinkles
- decrease in maximum wrinkle depth compared to the +UVB control [11, 18]: 49%
- decrease in mean depth of wrinkles compared to the +UVB control [11, 18]: 39%
- decrease in mean length of wrinkles compared to the +UVB control [11, 18]: 68%
- decrease in total wrinkle area compared to the +UVB control [11, 18]: 60%
- expression of MMP-1b gene compared to the +UVB control [12]: significant decrease
- expression of collagen type 3α1 compared to the +UVB control [13]: significant increase
- collagen fibers of the dermis layer (Masson's trichrome, aniline blue) compared to the control irradiated alone [14]: relatively more compact and regularly arranged

Molecule: ionone
- toxicity after oral administration [15]: no toxicity was shown
- antimicrobial activity [16]: strong antimicrobial activity
- LD50 [17]: 2 g/kg body weight
